# From the NIST ThermoML archive (doi:10.1016/j.jct.2009.03.001)
# ± gives the expanded uncertainty stated by the source.
# Assay: molar enthalpy of vaporization or sublimation
# Conditions: 298.15 K; Crystal; drop microcalorimetry
row,SMILES,molar enthalpy [kcal/mol]
1,"O=[N+]([O-])c1ccc(Cl)cc1Cl [1,3-dichloro-4-nitrobenzene]",21 ± 0.813
2,"O=[N+]([O-])c1cc(Cl)cc(Cl)c1 [1,3-dichloro-5-nitrobenzene]",19.9 ± 0.717
3,"O=[N+]([O-])c1cc(Cl)ccc1Cl [1,4-dichloro-2-nitrobenzene]",20.9 ± 1.2
4,"O=[N+]([O-])c1ccc(Cl)c(Cl)c1 [3,4-dichloro-1-nitrobenzene]",20.5 ± 1.2
